Measurements taken from article PMC7697888, “Comprehensive Set of Tertiary Complex Structures and Palmitic Acid Binding Provide Molecular Insights into Ligand Design for RXR Isoforms” (International Journal of Molecular Sciences, 2020).
No end group written: not given here. *: point of attachment. Biotin = O=C1N[C@H]2[C@H](CS[C@H]2CCCCC(=O)*)N1

Columns and labels:
RXRα = tested on: RXRα; parameters: method as in PMID 15073272; conditions: cited from earlier work
all RXR subtypes = tested on: all RXR subtypes; parameters: method as in PMID 9205071, PMID 26030625, PMID 27151148; conditions: read-out: EC50 activating all RXR subtypes; cited from earlier work
RXR = experiment: Gal4 hybrid reporter gene assays, competition with bexarotene / antagonist UVI3003 (isoform not specified); format: cell-based, human; conditions: UVI3003 at 1 µM; MA, PA and SA at 200 µM
Description: The Gal4 hybrid reporter gene assays for RXRα, RXRβ and RXRγ were performed as described previously using the Gal4-fusion receptor plasmids pFA-CMV-hRXRα-LBD (NR2B1, UniProt entry: P19793, aa 225–462), pFA-CMV-hRXRβ-LBD (NR2B2, UniProt entry: P28702-1, aa 294–533) and pFA-CMV-hRXRγ-LBD (NR2B3, UniProt entry: P48443-1, aa 229–463), which code for the hinge region and LBD of the canonical RXR isoform. pFR-Luc (Stratagene, San Diego, CA, USA) as the reporter plasmid and pRL-SV40 (Promega, Madison, WI, USA) as the internal control were used. HEK293T cells were grown in DMEM high-glucose medium (supplemented with 10% fetal calf serum (FCS), sodium pyruvate (1 mM), penicillin (100 U/mL) and streptomycin (100 μg/mL)) at 37 °C and 5% CO2, and seeded in 96-well plates (3.0 × 10^4 cells/well) on the day before transfection. Right before transfection, medium was changed to Opti-MEM without supplements and cells were transiently transfected using the Lipofectamine LTX reagent (Invitrogen, Carlsbad, CA, USA) according to the manufacturer’s protocol with pFR-Luc (Stratagene), pRL-SV40 (Promega) and the respective pFA-CMV-hRXR-LBD clone. After 5 h of incubation, medium was changed to Opti-MEM (supplemented with penicillin (100 U/mL) and streptomycin (100 μg/mL)) additionally containing 0.1% DMSO and the respective test compounds or 0.1% DMSO alone as the untreated control. After overnight incubation (12–14 h), cells were assayed for luciferase activity using the Dual-Glo luciferase assay system (Promega) according to the manufacturer’s protocol on a Tecan Spark M10 luminometer (Tecan Deutschland GmbH, Crailsheim, Germany). Each sample was tested in at least three biologically independent repeats in duplicates. Data were normalized for transfection efficiency and cell growth by division of firefly luciferase data by Renilla luciferase data and multiplying by 1000 to obtain relative light units (RLUs). Fold activation denotes the mean RLU of test compounds at a respective concentration divided by the mean RLU of untreated control. […]

[1] = biological target: T1, RXRα ligand-binding domain (NR2B1, aa 223–462) (human, UniProt P19793 223-462); experiment: crystal structure; sitting drop vapor diffusion at 20 °C; RXR LBD (10–13 mg/mL) with GRIP-1 peptide and palmitic acid (carried over from E. coli for RXRα, exogenously added for RXRβ and RXRγ); conditions: both partners purified
T1 construct: Cloned in pNIC28-Bsa4; Palmitic acid carried over from E. coli sat in the ligand pocket in the crystal; also called RXRα LBD; retinoid X receptor α; not shown: histidine tag, N-terminal, cleaved
T1 sequence (looked up): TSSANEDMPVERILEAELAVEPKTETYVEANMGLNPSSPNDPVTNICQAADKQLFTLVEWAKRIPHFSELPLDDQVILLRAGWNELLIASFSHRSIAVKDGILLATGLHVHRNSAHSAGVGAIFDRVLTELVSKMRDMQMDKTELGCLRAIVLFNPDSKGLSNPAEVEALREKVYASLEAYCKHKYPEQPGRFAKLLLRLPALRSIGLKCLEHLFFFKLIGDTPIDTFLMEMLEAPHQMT

[2] = biological target: T2, RXRγ ligand-binding domain (NR2B3, aa 233–463) (human, UniProt P48443 233-463); experiment: as above; conditions: both partners purified
T2 construct: Cloned in pNIC28-Bsa4; Crystallised with exogenously added palmitic acid; also called RXRγ LBD; not shown: histidine tag, N-terminal, cleaved
T2 sequence (looked up): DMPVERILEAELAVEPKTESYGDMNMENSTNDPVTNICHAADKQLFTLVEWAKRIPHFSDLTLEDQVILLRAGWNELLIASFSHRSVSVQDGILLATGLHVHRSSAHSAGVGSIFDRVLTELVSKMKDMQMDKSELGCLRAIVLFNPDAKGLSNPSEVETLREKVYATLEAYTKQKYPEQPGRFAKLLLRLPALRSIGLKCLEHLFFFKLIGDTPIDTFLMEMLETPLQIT

[3] = biological target: T3, RXRβ ligand-binding domain (NR2B2, aa 298–533) (human, UniProt P28702 298-533); experiment: as above; conditions: both partners purified
T3 construct: Cloned in pNIC28-Bsa4; Crystallised with exogenously added palmitic acid; also called RXRβ LBD; not shown: histidine tag, N-terminal, cleaved
T3 sequence (looked up): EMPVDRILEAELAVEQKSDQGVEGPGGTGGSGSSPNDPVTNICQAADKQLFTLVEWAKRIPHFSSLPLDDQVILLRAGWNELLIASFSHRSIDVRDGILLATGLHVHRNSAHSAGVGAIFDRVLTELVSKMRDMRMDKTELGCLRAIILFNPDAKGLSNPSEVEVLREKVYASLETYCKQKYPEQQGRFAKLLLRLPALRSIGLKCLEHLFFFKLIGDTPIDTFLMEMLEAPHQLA

[4] = biological target: T4, sGFP-RXRα LBD (aa 225–462) (human, UniProt P19793 225-462); experiment: AlphaScreen or HTRF; 12 nM sGFP-RXRα LBD (acceptor), 12 nM biotin-SRC-1 peptide on terbium cryptate-streptavidin (donor); 25 mM HEPES pH 7.5, 150 mM KF, 5% glycerol, 0.1% CHAPS, 5 mM DTT, 1% DMSO; 2 h at room temperature; with myristic, palmitic or stearic acid at varying concentrations, with or without 0.3 µM bexarotene; SR11237 as positive control; conditions: both partners purified
T4 construct: also called recombinant RXRα LBD fused to N-terminal superfolder green fluorescent protein; source: recombinant; not shown: superfolder green fluorescent protein (sGFP), N-terminal, kept
T4 sequence (looked up): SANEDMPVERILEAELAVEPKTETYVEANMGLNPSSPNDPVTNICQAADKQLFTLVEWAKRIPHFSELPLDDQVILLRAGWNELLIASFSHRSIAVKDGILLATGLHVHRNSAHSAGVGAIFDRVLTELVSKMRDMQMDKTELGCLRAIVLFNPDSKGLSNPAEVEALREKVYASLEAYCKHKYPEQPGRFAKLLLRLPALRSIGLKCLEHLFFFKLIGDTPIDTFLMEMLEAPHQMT

## CCCCC/C=C\C/C=C\C/C=C\C/C=C\CCCC(=O)O [arachidonic acid]
RXRα
  EC50: ~10 µM

## CC1=C(/C=C/C(C)=C\C=C\C(C)CC(=O)O)C(C)(C)CCC1 (stereo not drawn) [9-cis-13,14-dihydroretinoic acid]
All RXR subtypes
  EC50: ~100 nM

## CC1=C(/C=C/C(C)=C\C=C\C(C)=C\C(=O)O)C(C)(C)CCC1 [9-cis-retinoic acid]
All RXR subtypes
  EC50: ~100 nM

## CC/C=C\C/C=C\C/C=C\C/C=C\C/C=C\C/C=C\CCC(=O)O [docosahexaenoic acid]
RXRα
  EC50: ~10 µM

## CCCCCOc1cc2c(cc1-c1cc(/C=C/C(=O)O)ccc1O)C(C)(C)CCC2(C)C [UVI3003, reference compound]
RXR
  reversal of RXR agonistic effect of MA, PA and SA: fully reversed

B1: glucocorticoid receptor interacting protein 1 (GRIP-1) co-regulator peptide (peptide)
peptide: KHKILHRLLQDSSY
notes: NCOA2/TIF2) with an LxxLL box; last printed residue of the peptide; also called GRIP-1 peptide
[1]
  binding result: binds
[2]
  binding result: binds
[3]
  binding result: binds

B2: SRC-1-derived peptide (steroid receptor co-activator 1) (peptide)
peptide: Biotin-CPSSHSSLTERHKILHRLLQEGSPS
notes: NCOA1), contains the consensus motif LxxLL; Coupled through its biotin to terbium cryptate-streptavidin conjugate (FRET donor); source: bought: Eurogentec Deutschland GmbH; not shown: biotin, N-terminal, kept
[4]
  binding result: binds
